What was measured:
[1] = test system: pancreatic cancer stem cells (PaCSCs), primary PDAC cultures; details: primary PDAC cultures from patient-derived xenografts; ref not given; cited from earlier work
Source text: Intricate communication between pancreatic cancer cells and their surrounding environment is driven by a dynamic signaling network of cellular and matrix remodeling enzymes, cytokines, chemokines, and growth factors, which collectively promote tumor growth and treatment resistance. The non-receptor SRC kinase family signaling network is increasingly recognized as a key player in pancreatic tumorigenesis.[38],[39] Treatment of primary PDAC cultures established from patient-derived xenografts with dasatinib or PP2 reduced the clonogenic, self-renewal, and tumor-initiating capacity of pancreatic ...

[2] = test system: BLK (FAM83A tyrosine phosphorylation); assay: BLK-mediated FAM83A tyrosine phosphorylation in HEK293T cells; assay type: cell-based; details: 10 μM; HEK293T with or without BLK overexpression; n = 3
Source text: Cell lysates were used for IP and western blotting with the indicated antibodies (n = 3). f Level of total tyrosine phosphorylation of Flag-tagged FAM83A and its Y138A mutant in HEK293T cells after BLK kinase knockdown using two specific small interfering RNAs (siBLK#1 and siBLK#2). Cell lysates were used for IP and western blotting with the indicated antibodies (n = 3). g, h Level of total tyrosine phosphorylation of Flag-tagged FAM83A and its Y138A mutant in HEK293T cells with or without BLK kinase overexpression and saracatinib (BLK inhibitor, 10 μM)/PP2 (LCK or FYN inhibitor, 10 μM) treatment. Cell lysates were used for IP and western blotting with the indicated antibodies (n = 3). i The BLK kinases was obtained from the immunoprecipitate of HEK293T cell lysates that transfected with either HA-tagged BLK wild-type, BLK kinase-dead mutant (Y389A) or BLK constitutive activated mutant with the deletion of the C-terminal auto-inhibitory domain (BLK ΔC) using HA tag antibody. Then the BLK kinases were incubated with the in vitro purified GST-tagged FAM83A protein at 30 °C for 30 min with or without BLK inhibitor saracatinib, and then the reaction products were subjected to western blotting assay (n = 3)
Immunoprecipitation and Western blotting were performed as described previously.[35] GAPDH protein levels were used as loading controls. […]

[3] = test system: PANC-1 xenograft tumor (FAM83A re-expression); assay: Mouse xenograft of FAM83A re-expressing PANC-1 cells, Wnt inhibitor; assay type: in vivo, nude mice (human PANC-1 cells); details: 20 mg/kg intravenous (Fig. 6 legend) or 50 mg/kg intraperitoneal twice a week (methods); n = 6 or 5
Experimental: The Wnt inhibitor XAV939 (20 mg/kg) was intravenously injected into the caudal vein of the nude mice one week later after xenograft formation. c Growth curve showing the changes in the tumor volume in mice in different groups from the injection (n = 6 or 5). d Weight of the excised tumors in each group (n = 6 or 5). e, f Representative images of lung and colon metastasis of the nude mice model that tail intravenous injected with PANC-1 cells stably expressed Flag-tagged wild-type FA[MUT], [MUT], or [MUT] mutants were shown. g The number of lung or colon metastasis was quantified per field (n = 5). h, i Representative images and quantification of the soft agarose and plate colony formation assays of PANC-1 cells stably expressed Flag-tagged wild-type FA[MUT], [MUT], or [MUT] mutants (n = 3). j, k Representative images and quantification of the transwell assays without matrigel of PANC-1 cells stably expressed Flag-tagged wild-type FA[MUT], [MUT] or [MUT] mutants (n = 3). l Representative H&E staining images and immunohistochemical images of Ki67, C-myc, and AXIN2 expression in excised tumors tissues. *P < 0.05; **P < 0.01; ***P < 0.001. […] The length and width of the mouse xenograft tumors were measured every 5 days with calipers, and tumor volume (V) was calculated with the following formula: V = [(length × width × width)/2]. […]

| SMILES | clonogenic, self-renewal, and tumor-initiating capacity of PaCSCs [1] | FAM83A tyrosine phosphorylation [2] | xenograft tumor size [3] |
| --- | --- | --- | --- |
| CC(C)(C)n1nc(-c2ccc(Cl)cc2)c2c(N)ncnc21 [PP2] | reduced the clonogenic, self-renewal, and tumor-initiating capacity of pancreatic cancer stem cells | not LYN kinase inhibitor PP2 | – |
| CN1CCN(CCOc2cc(OC3CCOCC3)c3c(Nc4c(Cl)ccc5c4OCO5)ncnc3c2)CC1 [saracatinib] | – | could be reduced by the BLK kinase inhibitor saracatinib | – |
| Cc1nc(Nc2ncc(C(=O)Nc3c(C)cccc3Cl)s2)cc(N2CCN(CCO)CC2)n1 [dasatinib] | reduced the clonogenic, self-renewal, and tumor-initiating capacity of pancreatic cancer stem cells | – | – |
| Oc1nc(-c2ccc(C(F)(F)F)cc2)nc2c1CSCC2 [XAV939] | – | – | inhibits the xenograft tumor size mediated by FAM83A re-expression |
